According to ChEMBL document CHEMBL1201862, “PubChem BioAssay data set” (2004):
The source made the active and inactive calls.

Assays:
[1] = biological target: Beta-galactosidase (Escherichia coli, UniProt Q8VNN2); experiment: PubChem AID 485352; type: functional
[2] = biological target: T1, Type-1 angiotensin II receptor (Homo sapiens, UniProt P30556); experiment: AT1 receptor antagonists, dose response, selectivity assay for APJ receptor antagonist project, cell-based, uHTS hits (AID 463214); type: functional;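 further: antagonist potency against angiotensin II stimulated AT1 response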
T1 sequence (P30556 whole entry): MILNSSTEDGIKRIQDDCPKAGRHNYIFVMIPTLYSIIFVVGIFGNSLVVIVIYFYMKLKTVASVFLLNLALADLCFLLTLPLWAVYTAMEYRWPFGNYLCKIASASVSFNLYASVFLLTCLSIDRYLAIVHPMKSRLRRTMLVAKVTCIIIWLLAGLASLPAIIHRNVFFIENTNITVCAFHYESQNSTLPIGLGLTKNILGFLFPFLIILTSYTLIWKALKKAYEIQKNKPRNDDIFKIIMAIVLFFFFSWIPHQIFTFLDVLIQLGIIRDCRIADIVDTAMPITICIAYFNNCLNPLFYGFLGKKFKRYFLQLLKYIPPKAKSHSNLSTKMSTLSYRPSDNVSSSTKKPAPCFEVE

[3] = Luminescence Cell-Based Dose Retest to Confirm Inhibitors of Cancer Stem Cells. [Related pubchem assays (depositor defined):AID2717, AID2721]; type: functional; details: Homo sapiens
[4] = test system: INS1; experiment: beta cell apoptosis inhibitors, cytokine rescue, dose response, luminescence, retest (AID 449756); type: functional, cell-based; details: Rattus norvegicus;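 further: cell death triggered by IL-1 beta plus TNF-alpha plus IFN-gamma mixture; protective hits raise ATP signal compared with cytokine alone wells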
[5] = test system: H9c2; experiment: cells; type: functional, cell-based; details: Rattus norvegicus, H9c2, Myocardium;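 further: confirmatory concentration-response retest of ultra-high-throughput screening hits for modulation of myocardial damage; cell death induced by hydrogen peroxide oxidative stress; compound pretreatment for 60 min then peroxide exposure for 2 h; potency is for protecting the cells against peroxide damage rather than for killing them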
[6] = biological target: Glucose-6-phosphate 1-dehydrogenase (Homo sapiens, UniProt P11413); experiment: human G6PD enzyme inhibitors, dose response, selectivity assay for P. falciparum G6PD inhibitor project, biochemical, fluorescence (AID 504792); type: functional
Chain of Glucose-6-phosphate 1-dehydrogenase (P11413 whole entry): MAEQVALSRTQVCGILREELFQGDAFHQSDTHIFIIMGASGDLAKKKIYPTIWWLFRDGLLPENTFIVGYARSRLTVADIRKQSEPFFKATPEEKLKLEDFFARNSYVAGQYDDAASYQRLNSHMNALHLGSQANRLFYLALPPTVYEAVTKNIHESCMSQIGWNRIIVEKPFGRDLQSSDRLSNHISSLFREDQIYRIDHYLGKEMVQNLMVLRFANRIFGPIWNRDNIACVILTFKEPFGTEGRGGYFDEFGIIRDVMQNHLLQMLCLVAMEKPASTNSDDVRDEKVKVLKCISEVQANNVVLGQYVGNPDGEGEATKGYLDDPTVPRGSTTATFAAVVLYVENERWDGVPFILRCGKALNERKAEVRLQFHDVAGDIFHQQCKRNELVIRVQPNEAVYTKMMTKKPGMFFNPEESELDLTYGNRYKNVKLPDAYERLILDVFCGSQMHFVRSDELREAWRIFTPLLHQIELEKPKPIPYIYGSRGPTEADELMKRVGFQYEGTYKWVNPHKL

[7] = test system: A-375; experiment: MITF: Counter assay: A375 proliferation Measured in Cell-Based System Using Plate Reader - 2084-03_Inhibitor_Dose_DryPowder_Activity. [Related pubchem assays (depositor defined):AID488944]; type: functional; details: Homo sapiens
[8] = test system: A-375; experiment: A375 melanoma cell viability reduction, dose response, counter-screen for MITF modulator project, cherry-pick samples, set 2 (AID 540335); type: functional, cell-based; details: Homo sapiens
[9] = biological target: T2, Calpain-2 catalytic subunit (Sus scrofa, UniProt P43367); experiment: pig calpain II inhibitor potency, dose response, biochemical, fluorogenic peptide substrate (AID 1420); type: functional
T2 sequence (P43367 whole entry): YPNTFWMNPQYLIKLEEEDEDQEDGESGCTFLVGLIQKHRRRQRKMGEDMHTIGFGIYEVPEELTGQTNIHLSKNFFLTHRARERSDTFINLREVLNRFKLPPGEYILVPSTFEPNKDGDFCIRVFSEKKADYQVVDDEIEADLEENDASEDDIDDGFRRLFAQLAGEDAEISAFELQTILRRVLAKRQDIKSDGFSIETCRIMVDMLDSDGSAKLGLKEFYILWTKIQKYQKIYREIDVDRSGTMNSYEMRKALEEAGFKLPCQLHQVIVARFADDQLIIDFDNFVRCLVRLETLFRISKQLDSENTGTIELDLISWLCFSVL

[10] = NIH-3T3 fibroblast cytotoxicity, dose response, cytotoxicity control, cell-based, fluorescence, Alamar Blue, secondary assay (AID 2327); type: functional;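 further: NIH-3T3 mouse fibroblasts cultured with fluconazole at 8 µg/mL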
[11] = C. albicans growth with fluconazole, confirmation, fluorescence, retest (AID 2467); type: functional, cell-based
[12] = biological target: T3, Serine/threonine-protein phosphatase (Candida dubliniensis (strain CD36 / CBS 7987 / NCPF 3949 / NRRLY-17841) (Yeast), UniProt B9W6M3); experiment: calcineurin pathway inhibitors in yeast reporter, dose response, S. cerevisiae, CDRE-lacZ, luminescence, secondary (AID 2388); type: functional, cell-based;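 further: yeast reporter cells carrying a calcineurin-responsive lacZ construct stimulated with calcium chloride; luminescent beta-galactosidase reporter signal in whole cells rather than isolated phosphatase activity; potency for inhibition where a drop in reporter signal means calcineurin blockade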
T3 sequence (B9W6M3 whole entry): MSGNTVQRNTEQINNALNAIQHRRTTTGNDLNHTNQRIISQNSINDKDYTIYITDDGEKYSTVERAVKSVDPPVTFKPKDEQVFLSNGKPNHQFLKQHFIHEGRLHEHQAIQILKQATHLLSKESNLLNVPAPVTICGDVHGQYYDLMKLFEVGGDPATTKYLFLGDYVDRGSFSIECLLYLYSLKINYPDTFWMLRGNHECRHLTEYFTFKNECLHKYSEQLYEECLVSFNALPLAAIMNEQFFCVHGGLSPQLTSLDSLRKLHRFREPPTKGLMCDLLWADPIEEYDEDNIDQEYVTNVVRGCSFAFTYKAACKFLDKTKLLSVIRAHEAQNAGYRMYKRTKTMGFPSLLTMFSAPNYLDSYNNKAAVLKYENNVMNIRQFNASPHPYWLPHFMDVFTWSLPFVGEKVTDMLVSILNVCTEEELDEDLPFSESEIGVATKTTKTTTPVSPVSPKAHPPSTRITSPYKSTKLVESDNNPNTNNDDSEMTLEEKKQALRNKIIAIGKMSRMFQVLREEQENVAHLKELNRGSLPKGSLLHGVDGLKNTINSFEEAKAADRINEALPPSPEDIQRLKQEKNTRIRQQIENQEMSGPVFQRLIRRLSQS

[13] = biological target: T4, Mannose-6-phosphate isomerase (Homo sapiens, UniProt P34949); experiment: human PMI inhibitors, high substrate, primary screen, biochemical, fluorescence intensity, high mannose 6-phosphate (AID 1220)
T4 sequence (P34949 whole entry): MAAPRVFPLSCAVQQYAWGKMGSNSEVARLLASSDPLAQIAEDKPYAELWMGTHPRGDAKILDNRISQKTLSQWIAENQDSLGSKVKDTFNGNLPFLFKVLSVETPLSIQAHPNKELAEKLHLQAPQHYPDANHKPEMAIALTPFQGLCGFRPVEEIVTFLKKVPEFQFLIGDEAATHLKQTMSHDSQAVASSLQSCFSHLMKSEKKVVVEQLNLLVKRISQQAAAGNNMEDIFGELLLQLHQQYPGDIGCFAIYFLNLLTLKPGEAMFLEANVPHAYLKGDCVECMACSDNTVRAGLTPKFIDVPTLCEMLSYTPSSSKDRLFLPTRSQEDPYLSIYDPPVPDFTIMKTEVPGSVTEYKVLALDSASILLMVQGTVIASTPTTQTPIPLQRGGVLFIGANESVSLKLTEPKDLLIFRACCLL

[14] = biological target: Heat shock protein HSP 90-alpha (Homo sapiens, UniProt P07900); type: functional, organism-based
[15] = biological target: T3, Serine/threonine-protein phosphatase; experiment: Fluorescence Cell-Based Secondary Assay to Identify Inhibitors of Calcineurin. [Related pubchem assays (depositor defined):AID1979, AID2007]; type: functional
[16] = biological target: Genome polyprotein (dengue virus type 2, UniProt P29990); experiment: Dengue-2 NS5 methyltransferase inhibitors, primary screen, biochemical, confirmation dose response (AID 588689); type: functional
Chain of Genome polyprotein (P29990 2492-3391 limits assumed): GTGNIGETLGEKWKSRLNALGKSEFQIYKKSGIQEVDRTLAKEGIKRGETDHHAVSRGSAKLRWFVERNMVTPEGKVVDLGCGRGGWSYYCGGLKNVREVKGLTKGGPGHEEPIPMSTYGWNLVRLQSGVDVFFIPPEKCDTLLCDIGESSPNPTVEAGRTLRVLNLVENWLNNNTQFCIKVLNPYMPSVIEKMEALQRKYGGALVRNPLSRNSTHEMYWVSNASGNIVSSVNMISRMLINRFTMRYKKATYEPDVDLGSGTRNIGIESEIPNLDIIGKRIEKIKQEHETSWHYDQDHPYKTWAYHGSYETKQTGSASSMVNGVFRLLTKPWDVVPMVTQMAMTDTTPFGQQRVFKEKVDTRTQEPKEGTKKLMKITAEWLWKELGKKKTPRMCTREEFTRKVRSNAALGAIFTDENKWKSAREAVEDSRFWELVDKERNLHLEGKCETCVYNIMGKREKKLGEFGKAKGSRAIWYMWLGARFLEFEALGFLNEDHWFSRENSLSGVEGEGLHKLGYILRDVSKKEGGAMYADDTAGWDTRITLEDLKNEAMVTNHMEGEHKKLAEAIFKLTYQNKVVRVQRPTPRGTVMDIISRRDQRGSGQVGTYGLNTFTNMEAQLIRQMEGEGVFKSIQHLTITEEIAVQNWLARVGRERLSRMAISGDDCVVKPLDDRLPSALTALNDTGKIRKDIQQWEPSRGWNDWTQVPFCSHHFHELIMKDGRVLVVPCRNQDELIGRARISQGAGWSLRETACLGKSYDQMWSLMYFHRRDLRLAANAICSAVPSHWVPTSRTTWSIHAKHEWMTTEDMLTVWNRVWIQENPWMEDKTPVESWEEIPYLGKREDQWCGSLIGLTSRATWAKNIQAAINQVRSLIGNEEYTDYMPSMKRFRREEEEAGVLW

[17] = biological target: ATP-dependent molecular chaperone HSP82 (Candida albicans (strain WO-1) (Yeast), UniProt C4YTQ8); experiment: loss of DOC-induced GRE-beta-galactosidase reporter signal, dose response, Hsp90 inhibitor project, S. cerevisiae, luminescence (AID 2400); type: functional, cell-based;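 further: beta-galactosidase luminescence from glucocorticoid response element reporter as proxy for Hsp90 function; inhibitor potency where signal loss means Hsp90 inhibition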
Chain of ATP-dependent molecular chaperone HSP82 (C4YTQ8 whole entry): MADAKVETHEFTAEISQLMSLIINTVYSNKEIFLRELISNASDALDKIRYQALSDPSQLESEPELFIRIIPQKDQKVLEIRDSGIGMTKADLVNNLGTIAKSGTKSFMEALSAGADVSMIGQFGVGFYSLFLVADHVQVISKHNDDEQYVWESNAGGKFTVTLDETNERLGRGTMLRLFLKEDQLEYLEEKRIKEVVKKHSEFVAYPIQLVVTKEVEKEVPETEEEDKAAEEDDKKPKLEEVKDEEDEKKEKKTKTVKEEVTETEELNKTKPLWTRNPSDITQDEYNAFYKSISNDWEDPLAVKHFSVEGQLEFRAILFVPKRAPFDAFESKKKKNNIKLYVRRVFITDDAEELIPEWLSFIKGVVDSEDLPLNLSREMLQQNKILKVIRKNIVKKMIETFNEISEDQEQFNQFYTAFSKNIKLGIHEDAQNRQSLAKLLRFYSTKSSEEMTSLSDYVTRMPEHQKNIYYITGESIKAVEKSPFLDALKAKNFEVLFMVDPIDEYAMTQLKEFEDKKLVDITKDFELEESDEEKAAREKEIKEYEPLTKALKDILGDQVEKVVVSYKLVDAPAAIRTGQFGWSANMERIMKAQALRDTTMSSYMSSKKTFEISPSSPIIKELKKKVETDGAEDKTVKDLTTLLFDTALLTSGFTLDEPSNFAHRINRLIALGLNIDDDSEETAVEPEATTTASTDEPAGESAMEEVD

[18] = biological target: Melanocortin receptor 4 (Homo sapiens, UniProt P32245); type: functional, cell-based;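 further: Cell-based assay with luminescence read-out, confirmatory dose-response testing for agonist activity of biased ligands at MC4R; human U2OS cells with tagged receptor and beta-arrestin; potency of agonists that increase receptor coupling to beta-arrestin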
Chain of Melanocortin receptor 4 (P32245 whole entry, the tested form may be a part): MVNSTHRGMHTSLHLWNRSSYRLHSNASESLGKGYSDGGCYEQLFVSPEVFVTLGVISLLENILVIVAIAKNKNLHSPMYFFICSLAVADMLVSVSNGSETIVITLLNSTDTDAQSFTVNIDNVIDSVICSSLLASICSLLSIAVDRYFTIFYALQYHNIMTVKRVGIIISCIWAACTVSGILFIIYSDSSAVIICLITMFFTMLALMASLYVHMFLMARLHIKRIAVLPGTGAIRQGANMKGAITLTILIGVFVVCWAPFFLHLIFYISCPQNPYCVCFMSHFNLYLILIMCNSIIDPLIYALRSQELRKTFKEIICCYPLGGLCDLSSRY

[19] = biological target: Hepatocyte nuclear factor 4-alpha (Homo sapiens, UniProt P41235); type: functional, cell-based;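 further: biochemical luminescence-based dose-response counterscreen measuring inhibition of HNF4 dimerization, run alongside a screen for blockers of ABHD5–perilipin-5 interaction; split luciferase complementation of HNF4 fusion proteins in cell lysate measuring dimerization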
[20] = biological target: T5, Short transient receptor potential channel 4 (Mus musculus, UniProt Q9QUQ5); experiment: mouse TRPC4 channel activators, dose response, cell-based, HEK293 TRPC4/mu-opioid, Fluo-4 calcium (AID 434937); type: functional
T5 sequence (Q9QUQ5 whole entry): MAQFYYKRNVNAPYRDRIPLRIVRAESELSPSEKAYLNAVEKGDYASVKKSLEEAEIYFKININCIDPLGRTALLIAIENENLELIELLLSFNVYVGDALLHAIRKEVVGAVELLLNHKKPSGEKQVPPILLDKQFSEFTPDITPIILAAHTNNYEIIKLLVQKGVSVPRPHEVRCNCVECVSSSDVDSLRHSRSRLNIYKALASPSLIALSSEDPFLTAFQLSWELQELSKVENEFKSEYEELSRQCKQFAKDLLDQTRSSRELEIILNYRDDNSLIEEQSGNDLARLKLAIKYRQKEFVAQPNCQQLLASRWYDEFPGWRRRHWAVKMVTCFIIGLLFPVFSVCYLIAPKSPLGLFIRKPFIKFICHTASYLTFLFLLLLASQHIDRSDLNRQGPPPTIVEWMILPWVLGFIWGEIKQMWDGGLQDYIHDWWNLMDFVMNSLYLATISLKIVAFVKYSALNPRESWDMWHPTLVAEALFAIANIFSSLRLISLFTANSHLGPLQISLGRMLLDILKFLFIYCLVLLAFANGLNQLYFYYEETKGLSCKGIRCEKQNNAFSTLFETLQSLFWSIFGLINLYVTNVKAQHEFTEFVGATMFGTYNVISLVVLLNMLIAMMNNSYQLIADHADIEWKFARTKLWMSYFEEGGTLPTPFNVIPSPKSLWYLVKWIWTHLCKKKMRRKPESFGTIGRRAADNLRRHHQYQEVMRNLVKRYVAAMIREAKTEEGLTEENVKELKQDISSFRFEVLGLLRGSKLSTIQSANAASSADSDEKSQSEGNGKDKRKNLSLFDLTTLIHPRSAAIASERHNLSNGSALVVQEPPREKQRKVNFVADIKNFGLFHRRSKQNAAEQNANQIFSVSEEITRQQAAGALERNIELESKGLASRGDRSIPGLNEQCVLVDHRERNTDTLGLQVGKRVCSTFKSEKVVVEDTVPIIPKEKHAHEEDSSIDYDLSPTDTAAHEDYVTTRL

[21] = biological target: Delta-type opioid receptor (Homo sapiens, UniProt P41143); experiment: Counterscreen for agonists of heterodimerization of the mu 1 (OPRM1) and delta 1 (OPRD1) opioid receptors: Luminescence-based cell-based high throughput dose response assay to identify agonists of OPRD1 homodimerization. [Related pubchem assays (depositor defined):AID504326, AID504355, AID504692, AID504904, AID504905]; type: functional
Chain of Delta-type opioid receptor (P41143 whole entry): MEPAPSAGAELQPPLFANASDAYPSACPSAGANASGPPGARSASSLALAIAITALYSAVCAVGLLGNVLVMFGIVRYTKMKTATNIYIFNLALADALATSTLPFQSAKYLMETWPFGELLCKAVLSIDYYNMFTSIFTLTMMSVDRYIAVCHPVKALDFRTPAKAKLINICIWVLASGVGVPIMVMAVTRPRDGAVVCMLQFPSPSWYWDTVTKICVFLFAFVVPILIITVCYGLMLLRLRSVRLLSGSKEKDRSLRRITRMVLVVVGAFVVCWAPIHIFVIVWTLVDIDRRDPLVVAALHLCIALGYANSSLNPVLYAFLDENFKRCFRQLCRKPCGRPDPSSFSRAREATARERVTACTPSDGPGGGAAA

[22] = biological target: Mu-type opioid receptor (Homo sapiens, UniProt P35372); experiment: Counterscreen for agonists of heterodimerization of the mu 1 (OPRM1) and delta 1 (OPRD1) opioid receptors: Luminescence-based cell-based high throughput dose response assay to identify agonists of OPRM1 homodimerization.; type: functional;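 further: U2OS cells expressing OPRM1 and beta-arrestin as split beta-galactosidase partners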
Chain of Mu-type opioid receptor (P35372 whole entry): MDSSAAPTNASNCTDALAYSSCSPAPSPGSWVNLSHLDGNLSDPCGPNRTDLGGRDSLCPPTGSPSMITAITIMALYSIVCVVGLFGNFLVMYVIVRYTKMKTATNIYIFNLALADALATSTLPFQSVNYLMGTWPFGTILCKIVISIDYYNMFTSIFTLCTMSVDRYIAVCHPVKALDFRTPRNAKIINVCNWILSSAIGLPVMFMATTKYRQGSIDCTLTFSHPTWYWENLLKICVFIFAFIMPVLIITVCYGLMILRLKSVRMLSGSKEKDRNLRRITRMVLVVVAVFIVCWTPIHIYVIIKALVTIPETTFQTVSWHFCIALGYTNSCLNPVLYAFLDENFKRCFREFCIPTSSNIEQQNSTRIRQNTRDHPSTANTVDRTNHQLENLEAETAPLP

[23] = biological target: 5-hydroxytryptamine receptor 5A (Homo sapiens, UniProt P47898); experiment: Counterscreen for agonists of OPRM1-OPRD1 heterodimerization: luminescence-based cell-based high throughput dose response assay to identify agonists of 5-hydroxytryptamine (serotonin) 5A receptor (HTR5A). [Related pubchem assays (depositor defined):AID504326, AID504355, AID504692, AID504904, AID504905]; type: functional
Chain of 5-hydroxytryptamine receptor 5A (P47898 whole entry): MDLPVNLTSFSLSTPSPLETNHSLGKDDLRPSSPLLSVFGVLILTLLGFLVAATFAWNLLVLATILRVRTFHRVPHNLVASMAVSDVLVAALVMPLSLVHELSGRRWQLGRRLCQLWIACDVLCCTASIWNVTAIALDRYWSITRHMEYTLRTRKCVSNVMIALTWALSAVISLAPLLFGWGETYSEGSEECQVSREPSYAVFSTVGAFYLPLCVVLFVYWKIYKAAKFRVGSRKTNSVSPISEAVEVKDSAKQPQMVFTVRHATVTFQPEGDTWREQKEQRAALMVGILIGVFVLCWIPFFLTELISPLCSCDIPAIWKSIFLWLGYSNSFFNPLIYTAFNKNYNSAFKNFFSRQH

[24] = test system: HEK293; experiment: cells; type: functional, cell-based; details: Homo sapiens
[25] = biological target: T6, Nuclear receptor subfamily 0 group B member 1 (Homo sapiens, UniProt P51843); experiment: Luminescence-based cell-based high throughput dose response assay for inhibitors of the orphan nuclear receptor subfamily 0, group B, member 1 (DAX1; NR0B1). [Related pubchem assays (depositor defined):AID504766, AID504790]; type: functional
T6 sequence (P51843 whole entry): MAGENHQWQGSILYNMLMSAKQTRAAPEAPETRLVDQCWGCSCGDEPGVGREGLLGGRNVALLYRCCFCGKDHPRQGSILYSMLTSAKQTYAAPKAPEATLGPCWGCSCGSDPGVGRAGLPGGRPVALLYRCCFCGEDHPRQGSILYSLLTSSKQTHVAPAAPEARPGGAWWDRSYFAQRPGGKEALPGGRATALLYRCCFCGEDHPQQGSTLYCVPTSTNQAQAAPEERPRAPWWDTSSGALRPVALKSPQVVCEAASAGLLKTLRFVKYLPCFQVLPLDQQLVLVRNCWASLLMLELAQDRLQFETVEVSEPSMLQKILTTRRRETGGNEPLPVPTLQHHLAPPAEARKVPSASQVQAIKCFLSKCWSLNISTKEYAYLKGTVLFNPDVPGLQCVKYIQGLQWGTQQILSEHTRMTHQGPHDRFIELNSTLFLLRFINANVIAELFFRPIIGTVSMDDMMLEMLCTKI

Chain of Beta-galactosidase (Q8VNN2 whole entry): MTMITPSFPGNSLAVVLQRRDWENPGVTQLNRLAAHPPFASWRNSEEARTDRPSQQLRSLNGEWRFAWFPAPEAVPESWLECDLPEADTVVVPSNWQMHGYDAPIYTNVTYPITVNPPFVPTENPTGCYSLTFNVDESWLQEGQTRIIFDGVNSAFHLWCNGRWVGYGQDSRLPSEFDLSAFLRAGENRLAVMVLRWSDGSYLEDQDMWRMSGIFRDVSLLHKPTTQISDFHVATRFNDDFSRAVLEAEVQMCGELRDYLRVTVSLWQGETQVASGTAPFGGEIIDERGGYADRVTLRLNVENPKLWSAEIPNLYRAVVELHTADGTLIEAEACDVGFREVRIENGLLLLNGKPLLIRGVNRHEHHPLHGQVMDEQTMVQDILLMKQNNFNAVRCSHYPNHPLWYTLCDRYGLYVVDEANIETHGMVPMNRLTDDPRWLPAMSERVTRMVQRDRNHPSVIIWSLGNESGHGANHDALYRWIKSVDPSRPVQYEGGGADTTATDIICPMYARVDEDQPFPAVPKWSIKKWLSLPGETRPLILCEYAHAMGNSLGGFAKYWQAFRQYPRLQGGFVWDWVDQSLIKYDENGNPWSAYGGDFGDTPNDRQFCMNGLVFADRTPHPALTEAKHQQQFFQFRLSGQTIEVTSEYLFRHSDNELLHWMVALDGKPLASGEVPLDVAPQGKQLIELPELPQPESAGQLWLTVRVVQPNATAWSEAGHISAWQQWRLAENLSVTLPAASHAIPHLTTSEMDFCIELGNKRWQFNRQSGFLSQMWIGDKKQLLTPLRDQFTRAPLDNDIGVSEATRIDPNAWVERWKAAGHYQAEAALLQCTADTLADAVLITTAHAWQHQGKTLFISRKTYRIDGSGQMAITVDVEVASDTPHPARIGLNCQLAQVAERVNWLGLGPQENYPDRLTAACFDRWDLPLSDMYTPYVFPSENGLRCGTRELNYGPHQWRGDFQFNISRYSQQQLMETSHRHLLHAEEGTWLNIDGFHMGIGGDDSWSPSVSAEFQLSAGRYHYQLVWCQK

## CC1(C)Cc2c(c(N3CCOCC3)nc3sc4c(NN)ncnc4c23)CS1
[1]
  EC50: > 40 µM (inactive)
[2]
  IC50: 16.8 µM (active)
[3]
  AC50: 7.43 µM (active)
[4]
  AC50: 2.08 µM (active)
[5]
  IC50: 10 µM (active)

## O=C(Nc1ccc(N2CCOCC2)c(Cl)c1)c1ccc(Cl)cc1
[6]
  IC50: > 80 µM (inactive)

## Cc1ccc2oc(=O)n(CCCOc3ccccc3)c2c1
[7]
  AC50: > 35 µM (active)
[8]
  AC50: > 35 µM (active)

## Cc1cccc(OCC(=O)Nc2cccc(O)c2)c1
[7]
  AC50: > 35 µM (active)
[8]
  AC50: > 35 µM (active)

## CCN(CC)c1ccc(C(=O)NC(=S)Nc2cc(S(=O)(=O)N3CCOCC3)ccc2-n2cncn2)cc1
[1]
  EC50: > 40 µM (inactive)
[2]
  IC50: > 40 µM (not active)
[9]
  IC50: 9.89 µM (not active)

## Cc1ccc(C(=O)c2coc3c2C(=O)C(=O)c2ccccc2-3)cc1
[10]
  EC50: 27.9 µM (active)
[11]
  EC50: 0.983 µM (active)
[12]
  EC50: 3.78 µM (active)
[13]
  IC50: > 50 µM (not active)
[14]
  AC50: 3.84 µM (active)
[15]
  EC50: 9.27 µM (active)
[16]
  IC50: 55 µM (active)
[17]
  EC50: 1.21 µM (active)
[18]
  EC50: > 89.2 µM (inactive)
[19]
  IC50: 3.8 µM (active)

## Cc1ccc(/C=C/C(=O)N2CCN(S(=O)(=O)c3ccc(C)c(C)c3)CC2)o1
[6]
  IC50: > 80 µM (inactive)

## CN(C)C(CN=C(S)Nc1ccccc1Cl)c1cccnc1 (stereo not given)
[20]
  EC50: 0.0333 µM (active)
[21]
  EC50: 26.9 µM (inactive)
[22]
  EC50: 3.64 µM (active)
[23]
  EC50: > 92.5 µM (inactive)

## CCOC(=O)C1(c2ccccc2)CCN(CCC(=O)Nc2ccc(F)cc2)CC1
[21]
  EC50: > 92.5 µM (inactive)
[22]
  EC50: > 92.5 µM (inactive)
[23]
  EC50: > 92.5 µM (inactive)

## C/C(=N\NC(=S)NC1CCCCC1)c1ccc(Cl)c(Cl)c1
[24]
  IC50: > 67.5 µM (inactive)
[25]
  IC50: > 67.5 µM (inactive)

## COc1ccccc1/C=N\Nc1ccccc1[N+](=O)[O-]
[24]
  IC50: > 67.6 µM (inactive)
[25]
  IC50: > 67.6 µM (inactive)
